Patent EP0305843A2, “Antiviral agent” (BAYER AG, priority 1987, dated 1989)

Tests used:
[1] = tested on: Visna-Virus; assay: Visna virus test in cell culture (inhibition of virus-induced cytopathic effect, method of Narayan et al.); format: cell-based; conditions: Visna-virus-infected cell cultures treated with the compound at non-cytotoxic concentrations
From the text: In Zellkulturen, die mit Visna-Virus infiziert sind, treten 5 bis 10 Tage nach der Infektion ausgeprägte virusinduzierte, zytopathische Effekte auf. Durch Behandlung der infizierten Zellkulturen mit 9-(2,3-Anhydro-β-D-lyxofuranosyl)adenin konnte das Auftreten dieser zytopathischen Effekte verhindert werden. Der Visna-Virus-Test wurde nach der Methode von O. Narayan et al., Journal of Infectious Dieseases 135, 5, 1977, 800-806 durchgeführt. Dazu wurde 9-(2,3-Anhydro-β-D-lyxofuranosyl)adenin - in Produktionsmedium gelöst - in nicht zytotoxischen Konzentrationen in 96er Microtiterplatten verdünnt. Anschließend wurden Fibroblastenzellen vom Schaf (5 x 10⁴ Zellen pro Napf) - in Produktionsmedium suspendiert - zu jedem Näpfchen zugeführt. Jedes Näpfchen erhielt dann 50 µl einer Visna-Viruslösung mit einer Titer von ca. 2,5 x 10⁴ TCID₅₀ (TCID = tissue culture infectious dose). Diese Virusdosis entspricht einer MOI (Multiplizität der Infektion) von ca. 0,05.
Unter diesen Infektionsbedingungen resultierte zwischen Tag 5 und Tag 10 in einer Infektionskontrolle ohne Substanz ein virusinduzierter, zytopathischer Effekt. Die infizierten und behandelten Zellen und die Kontrollzellen wurden 7 Tage bei 37°C, 5 % CO₂ inkubiert. […]

[2] = tested on: T-Zellen; assay: Further studies: influence on the function of T cells; format: cell-based; conditions: no method or concentration given

Funktion von T-Zellen [2]: nicht beeinflußt
SMILES: Nc1ncnc2c1ncn2[C@@H]1O[C@H](CO)[C@@H]2O[C@@H]21 [9-(2,3-Anhydro-β-D-lyxofuranosyl)adenin]
Auftreten der virusinduzierten zytopathischen Effekte [1]: verhindert
